{"source": "paper PMC10938783", "about": "“A novel pan-PI3K inhibitor KTC1101 synergizes with anti-PD-1 therapy by targeting tumor suppression and immune activation” (Molecular Cancer, 2024)", "system": "B16 cells gene expression", "test": "RNA-Seq (DEGs, GSEA, heatmaps) of B16 cells", "details": "B16 cells, KTC 0.2μM", "key": {"[1]": {"details": "GSEA gene set HALLMARK_PI3K_AKT_MTOR_SIGNALING"}, "[2]": {"details": "GSEA gene set HALLMARK_PROTEIN_SECRETION"}, "[3]": {"details": "GSEA gene set HALLMARK_REACTIVE_OXIGEN_SPECIES_PATHWAY"}, "[4]": {"details": "GSEA gene set HALLMARK_SPERMATOGENESIS"}, "[5]": {"details": "GSEA gene set HALLMARK_TGF_BETA_SIGNALING"}, "[6]": {"details": "GSEA gene set HALLMARK_TNFA_SIGNALING_VIA_NFKB"}, "[7]": {"details": "GSEA gene set HALLMARK_UNFOLDED_PROTEIN_RESPONSE"}, "[8]": {"details": "GSEA gene set HALLMARK_UV_RESPONSE_DN"}, "[9]": {"details": "GSEA gene set HALLMARK_UV_RESPONSE_UP"}, "[10]": {"details": "GSEA gene set HALLMARK_WNT_BETA_CATENIN_SIGNALING"}, "[11]": {"details": "GSEA gene set HALLMARK_XENOBIOTIC_METABOLISM"}}}
{"smiles": "COc1cc(N)cc2c1nc(C(F)F)n2-c1nc(N2CCCOCC2)nc(N2CCOCC2)n1", "note": "[KTC1101, 2-(difluoromethyl)-4-methoxy-1-(4-morpholino-6-(1,4-oxazepan-4-yl)-1,3,5-triazin-2-yl)-1H-benzo[d]imidazol-6-amine]", "values": [{"measurement": "enrichmentScore", "setting": "GSEA gene set HALLMARK_PEROXISOME", "value": -0.395}, {"measurement": "NES", "setting": "[1]", "value": -2.189}, {"measurement": "enrichmentScore", "setting": "[1]", "value": -0.5044}, {"measurement": "NES", "setting": "[2]", "value": -1.203}, {"measurement": "enrichmentScore", "setting": "[2]", "value": -0.2769}, {"measurement": "NES", "setting": "[3]", "value": -1.95}, {"measurement": "enrichmentScore", "setting": "[3]", "value": -0.5432}, {"measurement": "NES", "setting": "[4]", "value": -1.401}, {"measurement": "enrichmentScore", "setting": "[4]", "value": -0.3536}, {"measurement": "NES", "setting": "[5]", "value": 1.944}, {"measurement": "enrichmentScore", "setting": "[5]", "value": 0.6123}, {"measurement": "NES", "setting": "[6]", "value": 2.211}, {"measurement": "enrichmentScore", "setting": "[6]", "value": 0.5723}, {"measurement": "NES", "setting": "[7]", "value": -1.548}, {"measurement": "enrichmentScore", "setting": "[7]", "value": -0.347}, {"measurement": "NES", "setting": "[8]", "value": 1.23}, {"measurement": "enrichmentScore", "setting": "[8]", "value": 0.3315}, {"measurement": "NES", "setting": "[9]", "value": 1.315}, {"measurement": "enrichmentScore", "setting": "[9]", "value": 0.3557}, {"measurement": "NES", "setting": "[10]", "value": 0.901}, {"measurement": "enrichmentScore", "setting": "[10]", "value": 0.3071}, {"measurement": "NES", "setting": "[11]", "value": -1.2042}, {"measurement": "enrichmentScore", "setting": "[11]", "value": -0.2641}, {"measurement": "NES: Glycolysis / Gluconeogenesis", "setting": "GSEA KEGG mmu00010", "value": -1.905}, {"measurement": "enrichmentScore: Glycolysis / Gluconeogenesis", "setting": "GSEA KEGG mmu00010", "value": -0.5183}, {"measurement": "NES: Citrate cycle (TCA cycle)", "setting": "GSEA KEGG mmu00020", "value": -1.91}, {"measurement": "enrichmentScore: Citrate cycle (TCA cycle)", "setting": "GSEA KEGG mmu00020", "value": -0.5694}, {"measurement": "NES: Pentose phosphate pathway", "setting": "GSEA KEGG mmu00030", "value": -1.779}, {"measurement": "enrichmentScore: Pentose phosphate pathway", "setting": "GSEA KEGG mmu00030", "value": -0.5767}, {"measurement": "NES: Fructose and mannose metabolism", "setting": "GSEA KEGG mmu00051", "value": -1.345}, {"measurement": "enrichmentScore: Fructose and mannose metabolism", "setting": "GSEA KEGG mmu00051", "value": -0.4104}, {"measurement": "NES: Galactose metabolism", "setting": "GSEA KEGG mmu00052", "value": -1.484}, {"measurement": "enrichmentScore: Galactose metabolism", "setting": "GSEA KEGG mmu00052", "value": -0.4712}, {"measurement": "NES: Oxidative phosphorylation", "setting": "GSEA KEGG mmu00190", "value": -2.112}, {"measurement": "enrichmentScore: Oxidative phosphorylation", "setting": "GSEA KEGG mmu00190", "value": -0.4855}, {"measurement": "NES: Purine metabolism", "setting": "GSEA KEGG mmu00230", "value": 1.524}, {"measurement": "enrichmentScore: Purine metabolism", "setting": "GSEA KEGG mmu00230", "value": 0.4484}, {"measurement": "NES: Pyrimidine metabolism", "setting": "GSEA KEGG mmu00240", "value": -1.587}, {"measurement": "enrichmentScore: Pyrimidine metabolism", "setting": "GSEA KEGG mmu00240", "value": -0.5015}, {"measurement": "NES: Alanine, aspartate and glutamate metabolism", "setting": "GSEA KEGG mmu00250", "value": -1.481}, {"measurement": "enrichmentScore: Alanine, aspartate and glutamate metabolism", "setting": "GSEA KEGG mmu00250", "value": -0.506}, {"measurement": "NES: Glycine, serine and threonine metabolism", "setting": "GSEA KEGG mmu00260", "value": -2.025}, {"measurement": "enrichmentScore: Glycine, serine and threonine metabolism", "setting": "GSEA KEGG mmu00260", "value": -0.643}, {"measurement": "NES: Cysteine and methionine metabolism", "setting": "GSEA KEGG mmu00270", "value": -1.68}, {"measurement": "enrichmentScore: Cysteine and methionine metabolism", "setting": "GSEA KEGG mmu00270", "value": -0.4743}, {"measurement": "NES: Valine, leucine and isoleucine degradation", "setting": "GSEA KEGG mmu00280", "value": -1.453}, {"measurement": "enrichmentScore: Valine, leucine and isoleucine degradation", "setting": "GSEA KEGG mmu00280", "value": -0.399}, {"measurement": "NES: Arginine and proline metabolism", "setting": "GSEA KEGG mmu00330", "value": -1.547}, {"measurement": "enrichmentScore: Arginine and proline metabolism", "setting": "GSEA KEGG mmu00330", "value": -0.474}, {"measurement": "NES: Glutathione metabolism", "setting": "GSEA KEGG mmu00480", "value": -1.885}, {"measurement": "enrichmentScore: Glutathione metabolism", "setting": "GSEA KEGG mmu00480", "value": -0.5172}, {"measurement": "NES: Amino sugar and nucleotide sugar metabolism", "setting": "GSEA KEGG mmu00520", "value": -1.225}, {"measurement": "enrichmentScore: Amino sugar and nucleotide sugar metabolism", "setting": "GSEA KEGG mmu00520", "value": -0.3367}, {"measurement": "NES: Glycerolipid metabolism", "setting": "GSEA KEGG mmu00561", "value": -1.232}, {"measurement": "enrichmentScore: Glycerolipid metabolism", "setting": "GSEA KEGG mmu00561", "value": -0.3383}, {"measurement": "NES: Ether lipid metabolism", "setting": "GSEA KEGG mmu00565", "value": -1.318}, {"measurement": "enrichmentScore: Ether lipid metabolism", "setting": "GSEA KEGG mmu00565", "value": -0.4355}, {"measurement": "NES: Pyruvate metabolism", "setting": "GSEA KEGG mmu00620", "value": -1.8611}, {"measurement": "enrichmentScore: Pyruvate metabolism", "setting": "GSEA KEGG mmu00620", "value": -0.5447}, {"measurement": "NES: Glyoxylate and dicarboxylate metabolism", "setting": "GSEA KEGG mmu00630", "value": -2.109}, {"measurement": "enrichmentScore: Glyoxylate and dicarboxylate metabolism", "setting": "GSEA KEGG mmu00630", "value": -0.6578}, {"measurement": "NES: Propanoate metabolism", "setting": "GSEA KEGG mmu00640", "value": -1.418}, {"measurement": "enrichmentScore: Propanoate metabolism", "setting": "GSEA KEGG mmu00640", "value": -0.4326}, {"measurement": "NES: Terpenoid backbone biosynthesis", "setting": "GSEA KEGG mmu00900", "value": -2.318}, {"measurement": "enrichmentScore: Terpenoid backbone biosynthesis", "setting": "GSEA KEGG mmu00900", "value": -0.7921}, {"measurement": "NES: Drug metabolism - other enzymes", "setting": "GSEA KEGG mmu00983", "value": -1.978}, {"measurement": "enrichmentScore: Drug metabolism - other enzymes", "setting": "GSEA KEGG mmu00983", "value": -0.5867}, {"measurement": "NES: Carbon metabolism", "setting": "GSEA KEGG mmu01200", "value": -2.129}, {"measurement": "enrichmentScore: Carbon metabolism", "setting": "GSEA KEGG mmu01200", "value": -0.4924}, {"measurement": "NES: 2-Oxocarboxylic acid metabolism", "setting": "GSEA KEGG mmu01210", "value": -1.574}, {"measurement": "enrichmentScore: 2-Oxocarboxylic acid metabolism", "setting": "GSEA KEGG mmu01210", "value": -0.4801}, {"measurement": "NES: Fatty acid metabolism", "setting": "GSEA KEGG mmu01212", "value": -1.192}, {"measurement": "enrichmentScore: Fatty acid metabolism", "setting": "GSEA KEGG mmu01212", "value": -0.3243}, {"measurement": "NES: Biosynthesis of amino acids", "setting": "GSEA KEGG mmu01230", "value": -2.742}, {"measurement": "enrichmentScore: Biosynthesis of amino acids", "setting": "GSEA KEGG mmu01230", "value": -0.7082}, {"measurement": "NES: Nucleotide metabolism", "setting": "GSEA KEGG mmu01232", "value": -1.799}, {"measurement": "enrichmentScore: Nucleotide metabolism", "setting": "GSEA KEGG mmu01232", "value": -0.4975}, {"measurement": "NES: Biosynthesis of cofactors", "setting": "GSEA KEGG mmu01240", "value": -1.22}, {"measurement": "enrichmentScore: Biosynthesis of cofactors", "setting": "GSEA KEGG mmu01240", "value": -0.2823}, {"measurement": "NES: EGFR tyrosine kinase inhibitor resistance", "setting": "GSEA KEGG mmu01521", "value": 1.545}, {"measurement": "enrichmentScore: EGFR tyrosine kinase inhibitor resistance", "setting": "GSEA KEGG mmu01521", "value": 0.4546}]}
